ChEMBL document CHEMBL1201862, “PubChem BioAssay data set” (2004)
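Cells were grown in 96-well plates and exposed to each compound for 48 hours at five concentrations; endpoints were interpolated linearly between bracketing concentrations, or set to the highest concentration if not reached. At the GI50, growth is halved.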 Activity calls are given as the source filed them. No stated cut-off is given here; in the data, active = GI50 up to about 1.1 µM and inactive = higher.

What was measured:
Assay in all cases: NCI-60 cell line screen, 48 h
[1] = system: ACHN
[2] = system: CCRF-CEM
[3] = system: COLO 205
[4] = system: IGROV-1
[5] = system: KM12
[6] = system: MDA-MB-231
[7] = system: MDA-MB-435
[8] = system: Malme-3M
[9] = system: NCI-H23
[10] = system: NCI-H460
[11] = system: OVCAR-8
[12] = system: RPMI-8226
[13] = system: RXF 393
[14] = system: SF-268
[15] = system: SF-295
[16] = system: SNB-19
[17] = system: SR
[18] = system: SW-620
[19] = system: TK-10
[20] = system: UACC-257

Row | Compound | GI50 [1] | GI50 [2] | GI50 [3] | GI50 [4] | GI50 [5] | GI50 [6] | GI50 [7] | GI50 [8] | GI50 [9] | GI50 [10] | GI50 [11] | GI50 [12] | GI50 [13] | GI50 [14] | GI50 [15] | GI50 [16] | GI50 [17] | GI50 [18] | GI50 [19] | GI50 [20]
1 | CC(=O)O[C@H]1C[C@H]2[C@@H]([C@H](OC(C)=O)C[C@@H]3CC4(CC[C@@]32C)OOC2(CCCCC2)OO4)[C@@H]2CC[C@H]([C@H](C)CCC(N)=O)[C@@]12C | 1.63 µM (inactive) | 1.28 µM (inactive) | 1.91 µM (inactive) | 0.134 µM (active) | 1.71 µM (inactive) | 1.95 µM (inactive) | 1.65 µM (inactive) | 2.76 µM (inactive) | 1 µM (active) | 1.93 µM (inactive) | 2.14 µM (inactive) | 0.726 µM (active) | 2.76 µM (inactive) | 1.66 µM (inactive) | 3.67 µM (inactive) | 5.85 µM (inactive) | 0.0787 µM (active) | 2.42 µM (inactive) | 2.6 µM (inactive) | 5.62 µM (inactive)
2 | Cc1cc(/N=C/c2ccc(Cl)cc2)n(-c2ccccc2)n1 | 47.2 µM (inactive) | 26.5 µM (inactive) | 23.9 µM (inactive) | 45.7 µM (inactive) | 23.4 µM (inactive) | > 100 µM (inactive) | 31.1 µM (inactive) | 49.3 µM (inactive) | 42 µM (inactive) | 43.1 µM (inactive) | 40.7 µM (inactive) | 24.6 µM (inactive) | 22.9 µM (inactive) | 69.3 µM (inactive) | 30.8 µM (inactive) | 61.1 µM (inactive) | 31 µM (inactive) | 39.2 µM (inactive) | 40.3 µM (inactive) | 63.5 µM (inactive)
3 | C[C@@H]([C@H]1CC[C@@]2(C)[C@@H]3CC[C@@H]4C(=CC3=CC[C@]12C)CC[C@H](N(C)C)C4(C)C)N(C)C [BUXAMINE A] | > 100 µM (inactive) | > 100 µM (inactive) | > 100 µM (inactive) | > 100 µM (inactive) | > 100 µM (inactive) | > 100 µM (inactive) | > 100 µM (inactive) | > 100 µM (inactive) | > 100 µM (inactive) | > 100 µM (inactive) | > 100 µM (inactive) | > 100 µM (inactive) | > 100 µM (inactive) | > 100 µM (inactive) | > 100 µM (inactive) | > 100 µM (inactive) | > 100 µM (inactive) | > 100 µM (inactive) | > 100 µM (inactive) | > 100 µM (inactive)
4 | CCOC(=O)Nc1cc2c(c(N)n1)N=C(c1ccccc1)CN2 | < 0.01 µM (active) | < 0.01 µM (active) | < 0.01 µM (active) | < 0.01 µM (active) | < 0.01 µM (active) | < 0.01 µM (active) | < 0.01 µM (active) | 16.4 µM (inactive) | < 0.01 µM (active) | < 0.01 µM (active) | < 0.01 µM (active) | < 0.01 µM (active) | < 0.0001 µM (active) | < 0.01 µM (active) | < 0.01 µM (active) | < 0.01 µM (active) | < 0.01 µM (active) | < 0.01 µM (active) | 10.7 µM (inactive) | 12.8 µM (inactive)
5 | CCOP(=O)(OCC)/C(F)=C/c1ccccc1 | > 100 µM (inactive) | > 100 µM (inactive) | > 100 µM (inactive) | > 100 µM (inactive) | > 100 µM (inactive) | > 100 µM (inactive) | > 100 µM (inactive) | > 100 µM (inactive) | > 100 µM (inactive) | > 100 µM (inactive) | > 100 µM (inactive) | > 100 µM (inactive) | > 100 µM (inactive) | > 100 µM (inactive) | > 100 µM (inactive) | > 100 µM (inactive) | > 100 µM (inactive) | > 100 µM (inactive) | > 100 µM (inactive) | > 100 µM (inactive)
6 | CCSCCCCC(c1ccc(O)cc1)C(C)(CC)c1ccc(O)cc1 (stereo not given) | 18.6 µM (inactive) | 18.6 µM (inactive) | 20.4 µM (inactive) | 16.9 µM (inactive) | 21.6 µM (inactive) | 21.7 µM (inactive) | 18.2 µM (inactive) | 20.3 µM (inactive) | 19.6 µM (inactive) | 30.1 µM (inactive) | 19.3 µM (inactive) | 19.5 µM (inactive) | 6.92 µM (inactive) | 20.3 µM (inactive) | 31.3 µM (inactive) | 24.5 µM (inactive) | 38.7 µM (inactive) | 21.4 µM (inactive) | 17.4 µM (inactive) | 22.2 µM (inactive)
7 | CC(C)(C)OC(=O)N1CCc2c(n(C/C=C/c3ccccc3)[nH]c2=O)C1 | > 100 µM (inactive) | 72.3 µM (inactive) | > 70.6 µM (inactive) | > 100 µM (inactive) | > 100 µM (inactive) | > 100 µM (inactive) | > 100 µM (inactive) | > 75.2 µM (inactive) | > 100 µM (inactive) | > 100 µM (inactive) | > 100 µM (inactive) | 95.5 µM (inactive) | > 100 µM (inactive) | > 100 µM (inactive) | > 100 µM (inactive) | > 100 µM (inactive) | 35.5 µM (inactive) | > 100 µM (inactive) | > 81.3 µM (inactive) | > 100 µM (inactive)
8 | CN(C)c1ccc(Cc2cc3c(O)ccc(O)c3cc(Cc3ccc(N(C)C)cc3)c2=O)cc1 | 12.5 µM (inactive) | 2.96 µM (inactive) | 16.1 µM (inactive) | 16.1 µM (inactive) | 18.6 µM (inactive) | 20.1 µM (inactive) | 15.1 µM (inactive) | 20.3 µM (inactive) | 22.4 µM (inactive) | 37.4 µM (inactive) | 17.1 µM (inactive) | 6.25 µM (inactive) | 9.31 µM (inactive) | 29.6 µM (inactive) | 34.4 µM (inactive) | 29.4 µM (inactive) | 3.08 µM (inactive) | 13.6 µM (inactive) | 18.6 µM (inactive) | 21.1 µM (inactive)
9 | Cc1ccc(CC(=O)Nc2ccc(NC(=O)CNC(=O)/C=C/c3ccc(-c4ccccc4)cc3)cc2C(=O)c2ccccc2)cc1 | 4.8 µM (inactive) | 4.79 µM (inactive) | 6.93 µM (inactive) | 8.24 µM (inactive) | 3.56 µM (inactive) | 2.62 µM (inactive) | 3.66 µM (inactive) | 2.99 µM (inactive) | 2.06 µM (inactive) | 2.86 µM (inactive) | 1.59 µM (inactive) | 10.4 µM (inactive) | 2.38 µM (inactive) | 2.45 µM (inactive) | 2.22 µM (inactive) | 4.57 µM (inactive) | 1.84 µM (inactive) | 4.75 µM (inactive) | 2.08 µM (inactive) | 6.32 µM (inactive)
10 | CNC(=O)CC1NC(=O)c2csc(n2)-c2ccc(-c3nc(C4=NC(C(=O)N5CCCC5C(N)=O)CO4)cs3)nc2-c2csc(n2)-c2csc(n2)C(C(C)C)NC(=O)CNC(=O)c2csc(n2)C(C(C)C)NC(=O)c2nc1sc2C (stereo not given) | 4.37 µM (inactive) | 0.00527 µM (active) | 0.00126 µM (active) | 0.00175 µM (active) | 0.0171 µM (active) | 0.0153 µM (active) | > 25 µM (inactive) | > 25 µM (inactive) | 0.00239 µM (active) | 0.00194 µM (active) | 0.00485 µM (active) | > 25 µM (inactive) | 0.00386 µM (active) | 0.0625 µM (active) | 0.021 µM (active) | 0.043 µM (active) | > 25 µM (inactive) | 0.00962 µM (active) | 0.0386 µM (active) | 0.02 µM (active)
11 | CCSC1=CC(=O)c2nc3ccccc3c3ccnc1c23 | 3.65 µM (inactive) | 2.44 µM (inactive) | 8.15 µM (inactive) | 2.72 µM (inactive) | 3.9 µM (inactive) | 4.14 µM (inactive) | 1.77 µM (inactive) | 1.67 µM (inactive) | 2.64 µM (inactive) | 6.24 µM (inactive) | 2.57 µM (inactive) | 2.33 µM (inactive) | 4.5 µM (inactive) | 2.49 µM (inactive) | 13.8 µM (inactive) | 42.2 µM (inactive) | 2.7 µM (inactive) | 2.68 µM (inactive) | 12.1 µM (inactive) | 1.95 µM (inactive)
12 | NCCN1C(=O)CN=C(c2ccc(Cl)cc2)c2cc(Cl)ccc21 | 18.7 µM (inactive) | 15.5 µM (inactive) | 19.3 µM (inactive) | 13.3 µM (inactive) | 17.2 µM (inactive) | 14.3 µM (inactive) | 14.9 µM (inactive) | 14.2 µM (inactive) | 18.1 µM (inactive) | 18 µM (inactive) | 16.7 µM (inactive) | 17.6 µM (inactive) | 11.5 µM (inactive) | 14.4 µM (inactive) | 32.8 µM (inactive) | 20.1 µM (inactive) | 17.9 µM (inactive) | 15.7 µM (inactive) | 16.1 µM (inactive) | 19 µM (inactive)
13 | CC(=O)NC1C(OCc2ccccc2)OC(CO)C(O)C1OCC(=O)NC(C)C(=O)NC(CCC(=O)Nc1ccc2c(c1)CN1C(=O)c3ccccc3C1=N2)C(N)=O (stereo not given) | > 100 µM (inactive) | > 100 µM (inactive) | > 100 µM (inactive) | > 100 µM (inactive) | > 100 µM (inactive) | > 100 µM (inactive) | > 100 µM (inactive) | > 100 µM (inactive) | > 100 µM (inactive) | > 100 µM (inactive) | > 100 µM (inactive) | > 100 µM (inactive) | > 100 µM (inactive) | > 100 µM (inactive) | > 100 µM (inactive) | > 100 µM (inactive) | > 100 µM (inactive) | > 100 µM (inactive) | > 100 µM (inactive) | > 100 µM (inactive)
